In EP3730147A1, “PREPARATION WITH HYPOGLYCEMIC EFFECT” (Instytut Biotechnologii i Badan Medycznych "Biolamed" SP. Z …, priority 2019, dated 2020):
Marks after values point to notes of the source that are not given here.

Key:
[1] = biological target: T1, rat liver glucose-6-phosphate dehydrogenase (DG-6-P) (Rattus norvegicus, UniProt P05370); assay: Effect on DG-6-P activity in 5.6-fold purified rat liver enzyme; format: biochemical; settings: for remaining activity at 5 µM / remaining activity at 25 µM: read-out: % of control (DG-6-P activity)
T1 construct: an additional enzyme purification procedure was performed; from tissue; host or cells: rat liver (5.6-fold purified enzyme preparation)
T1 sequence (P05370 whole entry): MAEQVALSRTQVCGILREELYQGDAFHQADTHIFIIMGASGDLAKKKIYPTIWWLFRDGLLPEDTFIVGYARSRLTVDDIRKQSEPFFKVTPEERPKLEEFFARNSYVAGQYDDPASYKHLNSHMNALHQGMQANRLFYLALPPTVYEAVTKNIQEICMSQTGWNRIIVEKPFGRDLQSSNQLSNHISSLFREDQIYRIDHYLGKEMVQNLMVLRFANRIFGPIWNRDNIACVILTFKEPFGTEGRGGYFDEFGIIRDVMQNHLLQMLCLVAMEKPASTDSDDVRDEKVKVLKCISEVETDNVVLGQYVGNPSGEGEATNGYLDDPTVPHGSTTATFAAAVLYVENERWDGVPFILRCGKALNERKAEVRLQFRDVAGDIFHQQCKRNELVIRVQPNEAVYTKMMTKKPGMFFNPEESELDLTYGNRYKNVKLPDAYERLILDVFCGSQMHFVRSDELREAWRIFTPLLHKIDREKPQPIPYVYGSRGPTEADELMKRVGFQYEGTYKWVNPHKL
Source text: (§1) Rat liver glycogen phosphorylase, rat liver and skeletal muscle hexokinase, rat liver glucose-6-phosphate dehydrogenase (DG-6-P), rat liver and skeletal muscle phosphofructokinase were selected as potential targets for in vitro testing of the hypoglycemic activity of lupane triterpenoids.
Surprising results were obtained by examining the effect of lupane triterpenoids on glucose-6-phosphate activity. […] In both cases, the observed effects were dose-dependent. […] Table 1. Effect of lupane triterpenoids on DG-6-P activity in 5.6-fold purified rat liver

Wistar rats [2] = assay: Blood glucose after glucose load in rats with alloxan-induced diabetes; format: in vivo; settings: 100 mg/kg; for Glucose concentration: glucose load 4 g/kg 4 hours after drug; for time after glucose administration at which glucose indicators normalized: alloxan diabetes, glucose load 4 g/kg
Protocol: The study was conducted on Wistar rats weighing 220-250 g. All animals were subjected to two weeks of observation prior to the experiment to exclude infection. Rats were housed in standard cages, 5 individuals in each. The animals stayed in a room with a temperature of 22±2°C, air humidity 60-70% and in natural lighting (12/12 in a day/night cycle). The animals had free access to water and standard laboratory feed ad libitum.
Diabetes was caused by a single intraperitoneal administration of alloxan at a dose of 170 mg/kg bw. The development of diabetes was observed on the basis of the main symptoms (polydipsia, polyphagia), glycosuria and hyperglycemia. Animals with high glucose levels of at least 14 mmol/L were selected for the experiment.
Animals were randomized into 6 groups of 8 individuals each. The first group, the control group, was formed from healthy animals without diabetes. The control group (healthy animals) received NaCl 1 ml/kg; Group 2. - diabetes mellitus (DM), received NaCl 1 ml/kg; Group 3. - DM + Betulin, at a dose of 100 mg/kg; Group 4. - DM + Lupeol, at a dose of 100 mg/kg; Group 5 - DM + Betulonic acid, at a dose of 100 mg/kg; Group 6 - DM + Betulinic acid, at a dose of 100 mg/kg; Group 7 - DM + Betulin-3,28-diacetate, at a dose of 100 mg/kg.
4 hours after drug administration, all animals intragastrically received a 40% glucose solution at a dose of 4 g/kg. The time of administration is determined in the available literature on its pharmacokinetics - peak plasma levels of lupane triterpenoids in rats are observed 3-4 hours after intragastric administration.
Peripheral blood glucose was determined using a Roche AccuCheck Active meter (USA) before and after glucose administration every 60 minutes for 5 hours. A drop of blood was taken from the tail tip incision.

[3] = biological target: T2, Rat liver glycogen phosphorylase (Rattus norvegicus, UniProt P09811); assay: Effect on glycogen phosphorylase activity in rat liver homogenates and post-mitochondrial fraction; format: biochemical
T2 construct: from tissue; host or cells: rat liver homogenates and post-mitochondrial fraction
T2 sequence (P09811 1-850): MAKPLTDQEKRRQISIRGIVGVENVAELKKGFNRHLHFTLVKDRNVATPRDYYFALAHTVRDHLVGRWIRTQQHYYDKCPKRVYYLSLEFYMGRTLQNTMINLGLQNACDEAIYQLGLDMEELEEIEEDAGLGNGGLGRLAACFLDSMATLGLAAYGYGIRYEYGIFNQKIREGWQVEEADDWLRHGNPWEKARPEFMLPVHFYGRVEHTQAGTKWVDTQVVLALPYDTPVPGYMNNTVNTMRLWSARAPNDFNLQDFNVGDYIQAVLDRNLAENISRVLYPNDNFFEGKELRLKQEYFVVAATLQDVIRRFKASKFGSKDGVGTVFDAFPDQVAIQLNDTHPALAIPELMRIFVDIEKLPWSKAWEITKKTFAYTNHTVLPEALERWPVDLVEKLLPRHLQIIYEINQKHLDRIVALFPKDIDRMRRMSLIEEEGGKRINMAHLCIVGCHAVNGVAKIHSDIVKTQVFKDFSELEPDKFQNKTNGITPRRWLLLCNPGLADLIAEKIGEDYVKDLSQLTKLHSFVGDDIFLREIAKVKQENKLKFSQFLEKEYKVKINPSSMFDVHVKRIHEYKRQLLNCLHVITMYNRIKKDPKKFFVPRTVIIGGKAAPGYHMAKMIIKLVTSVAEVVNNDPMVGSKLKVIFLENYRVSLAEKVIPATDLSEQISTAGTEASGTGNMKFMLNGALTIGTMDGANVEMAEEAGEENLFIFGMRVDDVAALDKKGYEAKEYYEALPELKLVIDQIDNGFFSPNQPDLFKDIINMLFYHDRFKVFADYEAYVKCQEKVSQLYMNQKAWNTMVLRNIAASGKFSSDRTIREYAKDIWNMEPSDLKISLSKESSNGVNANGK
Source text: as §1

pancreatic islet β-cells = assay: Insulin secretion by isolated Langerhans islets (enzyme immunoassay); format: cell-based; settings: 10 µM, 30 minutes incubation, compared to the control group
Protocol: To study the effect of betulin and betulinic acid on insulin secretion by pancreatic islet β-cells, their solutions in DMSO were incubated with isolated Langerhans islands in concentrations of 10 µM for 30 minutes, after which the insulin content in the incubation medium was determined by enzyme immunoassay.
The strongest reaction was observed after 30 minutes of incubation in the presence of 10 µM lupane triterpenoids (Figure 1).

Wistar rats [4] = assay: Blood glucose in rats with glucose-induced hyperglycemia (OGTT-2 / OGTT-4); format: in vivo; settings: compared to control animals
Protocol: To study the effect of betulin, 3,28-diacetate betulin, betulinic acid and lupeol on blood glucose levels in rats with induced hyperglycemia, the animals received 2 hours prior to glucose administration, test substances at doses of 100 or 1000 mg/kg. Hyperglycaemia was caused by oral administration of a 40% glucose solution at a dose of 2 g/kg (OGTT-2) or 4 g/kg (OGTT-4). The study was conducted on Wistar rats weighing 220-250 g. All animals were subjected to two weeks of observation prior to the experiment to exclude infection. Rats were housed in standard cages, 5 individuals in each. […] The animals had free access to water and standard laboratory feed ad libitum. Animals were randomized into 5 groups, 8 individuals each. Hyperglycaemia was caused by administration of a 40% glucose solution at doses of 2 or 4 g/kg. […] Blood glucose was determined with a Roche AccuCheck Active glucometer (USA) before and after glucose administration every 30 minutes for 2 hours and then every 60 minutes for 6 hours.

Wistar rats [5] = assay: Pancreatic islet morphometry in rats with alloxan-induced diabetes, 30 days treatment; format: in vivo
Protocol: The possible cytoprotective effect of lupane triterpenoids on the functional state of the pancreas in alloxan-induced diabetes in rats was evaluated. Alloxane was used to induce diabetes, which causes damage to the necrotic islet type pancreatic apparatus due to selective accumulation in β-cells and induction of massive free radical generation. The study was conducted on Wistar rats weighing 220-250 g. All animals were subjected to two weeks of observation prior to the experiment to exclude infection. Rats were housed in standard cages, 5 individuals in each. […] The animals had free access to water and standard laboratory feed ad libitum. Diabetes was caused by a single intraperitoneal administration of alloxan at a dose of 170 mg/kg bw. The development of diabetes was observed on the basis of the main symptoms (polydipsia, polyphagia), glycosuria and hyperglycemia. Animals with high glucose levels of at least 14 mmol/L were selected for the experiment. Animals were randomized into 8 groups of 8 individuals each. The first group, the control group, was formed from healthy animals without diabetes. The control group (healthy animals) received NaCl 1 ml/kg; Group 2 - DM + Lupeol, at a dose of 100 mg/kg; Group 3 - DM + Betulonic acid, at a dose of 100 mg/kg; Group 4 - DM + 3,28-betulin diacetate, at a dose of 100 mg/kg; Group 5 - DM + Betulinic acid, at a dose of 50 mg/kg; Group 6 - DM + Betulinic acid, at a dose of 100 mg/kg; Group 7 - DM + Betulin, at a dose of 50 mg/kg; Group 8 - DM + Betulin, at a dose of 100 mg/kg.

[6] = 50 mg/kg/day for 30 days, compared to the untreated group

SMILES | E (DG-6-P activity) ([1]; 5 µM) | remaining activity at 5 µM ([1]; 5 µM) | E (DG-6-P activity) ([1]; 25 µM) | remaining activity at 25 µM ([1]; 25 µM) | Glucose concentration (Wistar rats [2]; blood collection time 5 hours) | glycogen phosphorylase activity [3] | insulin secretion by pancreatic islet β-cells (pancreatic islet β-cells) | reduction in blood glucose levels at the peak of hyperglycemia (Wistar rats [4]) | time after glucose administration at which glucose indicators normalized (Wistar rats [2]) | Glucose concentration (Wistar rats [2]; blood collection time 0 hours) | Glucose concentration (Wistar rats [2]; blood collection time 2 hours) | area of Langerhans islets and their number (Wistar rats [5]; 50 mg/kg/day for 30 days) | increase of the number of β-cells in the islets (Wistar rats [5]; [6]) | islet diameter increase (Wistar rats [5]; [6]) | morphological picture of the pancreas (Wistar rats [5]; 100 mg/kg/day for 30 days, compared to the untreated group)
C=C(C)[C@@H]1CC[C@]2(COC(C)=O)CC[C@]3(C)[C@H](CC[C@@H]4[C@@]5(C)CC[C@H](OC(C)=O)C(C)(C)[C@@H]5CC[C@]43C)[C@@H]12 [3,28-betulin diacetate] | 0,158±0,002 | 75% | 0,111±0,008 | 52.8% | 8,51±0,52 mmol/l | – | – | – | – | – | – | – | – | – | –
CC1(C)CC[C@]23CC[C@]4(C)[C@H](CC[C@@H]5[C@@]6(C)CC[C@H](O)C(C)(C)[C@@H]6CC[C@]54C)[C@H]2[C@H]1OC3 [Allobetulin] | 0,151±0,004 | 72% | 0,103±0,002 | 49% | – | – | – | – | – | – | – | – | – | – | –
C=C(C)[C@@H]1CC[C@]2(CO)CC[C@]3(C)[C@H](CC[C@@H]4[C@@]5(C)CC[C@H](O)C(C)(C)[C@@H]5CC[C@]43C)[C@@H]12 [Betulin] | 0,149±0,004 | 71% | 0,100±0,002 | 47.6% | 6,01±0,78 mmol/l | greatest inhibitory effect | statistically significantly increase | 30-35% | 4 h | 10,82±0,31 mmol/l | 22,61±0,4 mmol/l | tendency to increase | 25-35% | 10-15% | significant improvement
C=C(C)[C@@H]1CC[C@]2(C(=O)O)CC[C@]3(C)[C@H](CC[C@@H]4[C@@]5(C)CC[C@H](O)C(C)(C)[C@@H]5CC[C@]43C)[C@@H]12 [Betulinic acid] | – | 68.8% | – | 44.2% | 7,88±1,30* * mmol/l | – | – | 30-35% | 4 h | 10,12±0,70 mmol/l | 25,64±1,50 mmol/l | – | 25-35% | 10-15% | –
C=C(C)[C@@H]1CC[C@]2(C(=O)O)CC[C@]3(C)[C@H](CC[C@@H]4[C@@]5(C)CCC(=O)C(C)(C)[C@@H]5CC[C@]43C)[C@@H]12 [Betulonic acid] | 0,148±0,003 | 70.3% | 0,109±0,007 | 51.9% | 6,52±0,7 mmol/l | greatest inhibitory effect | – | – | – | 10,32±0,77 mmol/l | 18,5±0,32 mmol/l | – | – | – | –
C=C(C)[C@@H]1CC[C@]2(C)CC[C@]3(C)[C@H](CC[C@@H]4[C@@]5(C)CC[C@H](O)C(C)(C)[C@@H]5CC[C@]43C)[C@@H]12 [Lupeol] | 0,143±0,005 | 68% | 0,113±0,009 | 53.6% | 9,38±0,75 mmol/l | – | – | – | – | – | – | – | – | – | –
